This passage reports MIC and IC50 results from ChEMBL document CHEMBL4184132, “Chrodrimanins K-N and Related Meroterpenoids from the Fungus Penicillium sp. SCS-KFD09 Isolated from a Marine Worm, Sipunculus nudus” (J Nat Prod, 2017).

Molecules are shown by their SMILES. ≈ marks a conversion by molar mass, not a printed value.

Usually MIC stands for the least concentration at which growth counts as inhibited. A lower MIC goes with greater potency. The term IC50 denotes the concentration that gives 50% inhibition.

For the first assay, the system named is Staphylococcus aureus. The assay can be described thus: Antimicrobial activity against Staphylococcus aureus by XTT assay. It counts as functional.
Conditions: not given
Background: Tetrazolium assays rely on reduction of a dye to a coloured formazan, in cell work by metabolically active cells.
In the case of `CN[C@@H]1[C@@H](O)[C@@H](O[C@@H]2[C@@H](O)[C@H](O[C@H]3O[C@H](CN)CC[C@H]3N)[C@@H](N)C[C@H]2N)OC[C@]1(C)O.O=S(=O)(O)O`, the MIC came out at 4 µg/mL.

`C/C(=C\Cc1c(O)cc(O)c2c1C[C@@H](C)OC2=O)CCC(O)[C@@]1(C)CC[C@@H](C(C)(C)O)O1` (stereo partly specified): the minimum inhibitory concentration (MIC) was determined as 32 µg/mL (≈ 71.3 µM).

Another assay has as its system Influenza A virus. Description: Antiviral activity against Influenza A virus (A/Puerto Rico/8/34(H1N1)) infected in MDCK cells assessed as protection against virus-induced cytopathogenicity after 48 hrs by crystal-violet staining-based assay. It counts as functional, organism-based. The settings on record: A/Puerto Rico/8/1934(H1N1). On the technique in general: Cytopathic effects are the visible damage that an infection or toxin causes in cultured cells.
Regarding `CC(=O)O[C@@H]1c2c3c(cc(O)c2C(=O)O[C@@H]1C)O[C@@]1(C)[C@@H](O)C[C@H]2C(C)(C)C(=O)CC[C@]2(C)[C@@H]1C3`, the IC50 was 58 µM.

Turning to `C[C@@H]1Cc2c3c(c(Cl)c(O)c2C(=O)O1)O[C@@]1(C)[C@@H](O)C[C@H]2C(C)(C)C(=O)C=C[C@]2(C)[C@@H]1C3`, the IC50 is 74 µM.

In the case of `C[C@@H]1Cc2c3c(cc(O)c2C(=O)O1)O[C@@]1(C)CC[C@H]2C(C)(C)C(=O)CC[C@]2(C)[C@@H]1C3`, the 50% inhibitory concentration (IC50) is 34 µM.

Turning to `NC(=O)c1ncn([C@@H]2O[C@H](CO)[C@@H](O)[C@H]2O)n1` [RIBAVIRIN], the half-maximal inhibitory concentration (IC50) turned out to be 103 µM.
